Here are results for eight molecules from publication PMC4240550 (PLoS ONE, 2014).

Assay [1] has as its target T1, LecB (Pseudomonas aeruginosa, UniProt Q9HYN5). As to conditions: ITC; cited from earlier work. Background: Isothermal titration calorimetry measures the heat released or taken up as one component is titrated into another.
Assay [2] deals with T1, LecB. As to conditions: for N: ITC stoichiometry; for difference in Kd / binding affinity from the equatorial methyl group: microcalorimetry, vs analog lacking the methyl group (4 vs 5; 3 vs 7).
Assay [3] has as its target T1, LecB. In words: biochemical. The settings on record: IC50, fluorescence polarization, TBS/Ca pH 7.4; mean ± SD of minimum three independent measurements of triplicates. The class given is binding. In general terms: In fluorescence polarisation assays a small probe gives low polarisation when free and higher when bound to something large.
In assay [4] the target is T1, LecB. Description: biochemical.
[5] abbreviates: validation titration of LecB (56.1 µM) with 1 (700 µM).
The mark [6] stands for this setting: 25°C, mean ± SD of minimum three titrations (5: indirect titration with 3, two titrations).
Where [7] appears, read: mean ± SD of minimum three titrations (5: indirect titration with 3, two titrations).

Values joined by “and” are separate entries in the source; they are usually repeats but may differ in a detail not shown here. Equal entries are not always repeated. Where two headings read alike, the source gives them in different places.

T1 sequence (Q9HYN5 entry or part of it): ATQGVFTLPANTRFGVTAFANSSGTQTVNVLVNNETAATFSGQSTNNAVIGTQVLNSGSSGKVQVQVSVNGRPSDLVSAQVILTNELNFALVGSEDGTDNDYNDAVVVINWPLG

Consider `CO[C@@H]1O[C@@H](C)[C@@H](O)[C@@H](O)[C@@H]1O` [compound 1, methyl α-L-fucoside, reference compound], for which, at LecB [1], the “-TΔS” value is 1.17 kcal/mol and the ΔH is -9.87 kcal/mol. Also, on LecB [2] (methyl α-L-fucoside (1) compared with 1-deoxy L-fucose (3)), the “difference in Gibbs energy” value is -0.359 kcal/mol. Besides, on LecB [2] (setting [5]), the ΔG was -8.525 kcal/mol and the ΔH was -9.257 kcal/mol.
As for `CO[C@H]1O[C@H](CO)[C@@H](O)[C@H](O)[C@@H]1O` [compound 2, methyl α-D-mannoside], on LecB [1], the “-TΔS” value was -1.41 kcal/mol and the ΔH is -4.25 kcal/mol.
Usually IC50 stands for the concentration that inhibits the measured activity by half. A high value points to weaker potency. As a reminder, the Kd is the equilibrium constant for the complex coming apart. With `CC1OCC(O)C(O)C1O` [compound 3, 1-deoxy L-fucose], on LecB [2] (setting [6]), the “-TΔS” value worked out at 0.327 ± 0.263 kcal/mol, the ΔG was -8.34 ± 0.072 kcal/mol and the ΔH is -8.68 ± 0.22 kcal/mol. Also, the N at LecB [2] (setting [7]) amounted to 1.07 ± 0.03. Further, the “difference in Kd / binding affinity from the equatorial methyl group” value at LecB [2] was 4- to 6 fold. This molecule also returned an IC50 at LecB [3] of 1.6 ± 0.7 µM. For the same molecule, the dissociation constant (Kd) at LecB [4] worked out at 0.77 ± 0.1 µM.
For `C[C@@H]1O[C@H](CO)[C@@H](O)[C@H](O)[C@@H]1O` [compound 4, β-L-fucopyranosyl methanol], on LecB [2] (setting [6]), the “-TΔS” value is -0.588 ± 0.335 kcal/mol, the ΔG was -6.57 ± 0.239 kcal/mol and the ΔH was -5.98 ± 0.382 kcal/mol. On LecB [2] (setting [7]), this molecule returned an N of 0.86 ± 0.1. The “difference in Kd / binding affinity from the equatorial methyl group” value on LecB [2] is on record as 4- to 6 fold. On LecB [3], the IC50 is 23 µM and 22.9 µM. Also, binding at LecB [4] was put at a Kd of 16.1 µM.
Turning to `OC[C@H]1OC[C@@H](O)[C@@H](O)[C@@H]1O` [compound 5, 1-deoxy D-mannose], at LecB [2] (setting [6]), the “-TΔS” value is -1.41 ± 0.382 kcal/mol, the ΔG is -5.69 ± 0.22 kcal/mol and the ΔH was -4.28 ± 0.14 kcal/mol. This molecule had a N at LecB [2] (setting [7]) of 0.87 ± 0.18. For the same molecule, half-maximal inhibition against LecB [3] (IC50) was put at 104 µM. Moreover, at LecB [4], the Kd worked out at 69.1 ± 25 µM.
Take `C[C@@H]1O[C@H](C)[C@@H](O)[C@H](O)[C@@H]1O` [compound 6, β-L-fucopyranosyl methane]: at LecB [2] (setting [6]), the “-TΔS” value was -0.308 ± 0.43 kcal/mol, the ΔG is -6.5 ± 0.072 kcal/mol and the ΔH is -6.19 ± 0.382 kcal/mol. At LecB [2] (setting [7]), this molecule gave an N of 0.86 ± 0.2. In addition, the IC50 against LecB [3] is 21 µM and 20.6 µM. On LecB [4], the affinity, expressed as Kd, was 16.9 ± 1.9 µM.
Regarding `OC1[C@H](O)COC[C@H]1O` [compound 7, 1-deoxy D-arabinose], at LecB [2] (setting [6]), the “-TΔS” value was determined as 1.14 ± 0.574 kcal/mol, the ΔG is -7.29 ± 0.072 kcal/mol and the ΔH is -8.44 ± 0.574 kcal/mol. The molecule further had a N at LecB [2] (setting [7]) of 0.81 ± 0.1. Further, at LecB [3], the IC50 was 9.7 µM and 9.65 µM. The molecule also had a Kd at LecB [4] of 4.46 ± 0.7 µM.
For `CO[C@@H]1OC[C@@H](O)[C@@H](O)[C@@H]1O` [compound 13, methyl β-D-arabinoside], at LecB [1], the “-TΔS” value was 1.29 kcal/mol, the equilibrium dissociation constant (Kd) was 1.7 µM, the ΔG is -7.89 kcal/mol and the ΔH is -9.06 kcal/mol. The molecule further yielded an IC50 at LecB [3] of 3.4 µM.
